From patent publication US20200339548A1, “PYRIMIDINE DERIVATIVES AND THEIR USE FOR THE TREATMENT OF CANCER” (Adorx Therapeutics Limited, priority 2017, published 2020)
Counter-ions that a name gives are not always drawn.

Legend:
Adenosine A2a receptor = molecular target: T1, Adenosine A2a receptor (Homo sapiens, UniProt P29274); test: Adenosine receptor TR-FRET binding assay, A2a; details: displacement of 100 nM CA200645, CHO cell membranes
T1 construct: expressed in transfected cells; host or cells: CHO cell membranes
T1 sequence (P29274 whole entry): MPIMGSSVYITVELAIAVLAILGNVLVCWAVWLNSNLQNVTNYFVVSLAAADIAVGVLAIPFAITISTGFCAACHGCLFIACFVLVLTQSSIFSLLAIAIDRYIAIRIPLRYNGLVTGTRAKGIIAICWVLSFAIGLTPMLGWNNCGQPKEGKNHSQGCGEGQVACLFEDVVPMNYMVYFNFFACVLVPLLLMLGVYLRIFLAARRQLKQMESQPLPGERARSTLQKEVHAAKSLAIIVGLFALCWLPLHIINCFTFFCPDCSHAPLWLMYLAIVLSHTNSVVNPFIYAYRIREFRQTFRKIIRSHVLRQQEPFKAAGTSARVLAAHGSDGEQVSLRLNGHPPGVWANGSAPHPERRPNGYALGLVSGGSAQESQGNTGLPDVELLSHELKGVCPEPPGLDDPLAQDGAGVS
Procedure, shortened: (§1)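 Competition TR-FRET binding in CHO cell membranes expressing terbium-labelled human receptors, displacing fluorescent XAC (CA200645; 30 nM for A2b, 100 nM for A1, A2a, A3); 2 h at room temperature with saponin buffer, 1% DMSO. 665/620 nm ratio; non-specific with 10 μM XAC; Ki by Cheng–Prusoff from IC50.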

Adenosine A2b receptor = molecular target: T2, Adenosine A2b receptor (Homo sapiens, UniProt P29275); test: Adenosine receptor TR-FRET binding assay, A2b; details: Table 9, further testing; displacement of 30 nM CA200645, CHO cell membranes
T2 construct: expressed in transfected cells; host or cells: CHO cell membranes
T2 sequence (P29275 1-332): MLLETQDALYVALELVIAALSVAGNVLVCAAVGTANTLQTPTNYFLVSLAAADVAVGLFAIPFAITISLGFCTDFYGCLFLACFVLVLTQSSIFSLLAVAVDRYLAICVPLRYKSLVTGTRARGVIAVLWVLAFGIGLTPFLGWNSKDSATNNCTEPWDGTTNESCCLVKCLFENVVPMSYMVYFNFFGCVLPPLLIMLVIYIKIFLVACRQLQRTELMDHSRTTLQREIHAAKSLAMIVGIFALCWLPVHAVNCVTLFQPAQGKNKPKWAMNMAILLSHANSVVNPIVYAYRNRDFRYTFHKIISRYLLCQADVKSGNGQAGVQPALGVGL
Procedure, shortened: as §1

Adenosine A3 receptor = molecular target: T3, Adenosine A3 receptor (Homo sapiens, UniProt P0DMS8); test: Adenosine receptor TR-FRET binding assay, A3; details: Table 9, further testing; displacement of 100 nM CA200645, CHO cell membranes; read-out: A3 Ki
T3 construct: expressed in transfected cells; host or cells: CHO cell membranes
T3 sequence (P0DMS8 1-318): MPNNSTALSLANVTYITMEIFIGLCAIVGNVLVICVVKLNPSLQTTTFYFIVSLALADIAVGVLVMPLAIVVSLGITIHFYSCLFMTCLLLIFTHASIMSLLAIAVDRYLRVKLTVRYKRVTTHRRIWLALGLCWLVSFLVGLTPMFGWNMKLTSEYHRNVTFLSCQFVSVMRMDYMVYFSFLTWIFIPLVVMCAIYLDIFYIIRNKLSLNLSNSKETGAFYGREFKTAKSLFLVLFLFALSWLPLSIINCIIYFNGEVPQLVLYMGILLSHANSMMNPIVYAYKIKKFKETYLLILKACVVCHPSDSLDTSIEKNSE
Description: All FRET binding experiments were conducted at room temperature in white 384-well plates, in assay binding buffer containing 1× LabMed (Cisbio, France), 100 μg/mL saponin, 1% DMSO and 0.02% pluronic acid. Binding of the fluorescently labelled Adenosine receptor antagonist XAC (CA200645, FRET acceptor) to terbium-labelled A1, A2a, A2b and A3 adenosine receptors (FRET donors) was detected by time-resolved FRET due to the close proximity of the donor and acceptor in a binding event. To investigate the ability of unlabelled test compounds to bind to Adenosine A1, A2a, A2b and A3 receptors, dose response curves were constructed that determined the ability of a range of concentrations to inhibit the binding of 30 nM CA200645 to the A2b receptor and 100 nM CA200645 to the A1, A2a, and A3 receptor.
Serial dilution (1:3 dilutions) of test compounds in neat DMSO and transfer of a 400 nL sample of test compound into the assay plate was carried out using the Mosquito (TTP Labtech, UK). The compound samples were incubated for 2 hours at room temperature with a fixed concentration of CA200645 defined for each receptor (see above) and CHO cell membranes containing the human Adenosine A1 (0.5 μg/well), A2a (0.3 μg/well), A2b (1 μg/well) or A3 (1 μg/well) receptor in 40 μL of assay buffer. Total and non-specific binding of CA200645 was determined in the absence and presence of 10 μM XAC, respectively.
Following 2 hours incubation, the level of CA200645 binding was detected on a Pherastar FSX (BMG Labtech, Germany) using standard TR-FRET settings. The terbium donor was excited with three laser flashes at a wavelength of 337 nm, and donor and acceptor emission was detected at 620 nm and 665 nm wavelengths, respectively. FRET ratios were obtained by multiplying the acceptor/donor ratio value by 10,000. Specific binding was determined by subtracting the non-specific binding FRET ratio from the total binding FRET ratio. Compound IC50 curves were analysed using GraphPad Prism 7.0 (GraphPad, USA) and Ki affinity values were determined from the obtained […] values using the method of Cheng and Prusoff.

Adenosine A1 receptor = molecular target: T4, Adenosine A1 receptor (Homo sapiens, UniProt P30542); test: Adenosine receptor TR-FRET binding assay, A1; details: Table 9, further testing; displacement of 100 nM CA200645, CHO cell membranes
T4 construct: expressed in transfected cells; host or cells: CHO cell membranes
T4 sequence (P30542 1-326): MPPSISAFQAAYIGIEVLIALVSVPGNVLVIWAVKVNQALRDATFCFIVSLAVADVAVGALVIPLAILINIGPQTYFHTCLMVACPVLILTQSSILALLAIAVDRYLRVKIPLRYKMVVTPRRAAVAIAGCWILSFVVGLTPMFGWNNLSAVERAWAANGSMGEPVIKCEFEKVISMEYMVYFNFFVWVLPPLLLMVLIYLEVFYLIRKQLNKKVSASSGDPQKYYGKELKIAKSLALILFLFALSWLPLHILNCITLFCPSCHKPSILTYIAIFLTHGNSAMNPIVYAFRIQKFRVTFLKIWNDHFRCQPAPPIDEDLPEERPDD
Procedure, shortened: as §1

Ki (Adenosine A2a receptor; Table 9, further testing) | Ki (Adenosine A2b receptor) | Ki (Adenosine A3 receptor) | Ki (Adenosine A1 receptor) | Ki (Adenosine A2a receptor; Table 8, Cheng and Prusoff) | SMILES
0.021 µM | 2.13 µM | 0.753 µM | 0.521 µM |  | Cc1cc(C)cc(CNC(=O)c2cnc(-c3ccco3)nc2N)c1 [Example 5.39, 4-Amino-N-[(3,5-dimethylphenyl)methyl]-2-(2-furyl)pyrimidine-5-carboxamide]
0.104 µM | 2.42 µM | 0.778 µM | 0.238 µM | 0.104 µM | Nc1nc(-c2cccc(F)c2)ncc1C(=O)NCc1cc(F)cc(F)c1 [Example 10.7, 4-Amino-N-[(3,5-difluorophenyl)methyl]-2-(3-fluorophenyl)pyrimidine-5-carboxamide]
0.796 µM | 8.49 µM | 1.8 µM | 4.44 µM | 0.796 µM | Cc1ccc(CNC(=O)c2cnc(-c3cccc(F)c3)nc2N)cc1 [Example 10, 4-Amino-2-(3-fluorophenyl)-N-(p-tolylmethyl)pyrimidine-5-carboxamide]
0.194 µM | 1.48 µM | 0.582 µM | 0.28 µM | 0.194 µM | Nc1nc(-c2cccc(F)c2)ncc1C(=O)NCc1cccc(Cl)c1 [Example 10.2, 4-Amino-N-[(3-chlorophenyl)methyl]-2-(3-fluorophenyl)pyrimidine-5-carboxamide]
0.18 µM | 1.36 µM | 0.504 µM | 0.598 µM | 0.18 µM | Nc1nc(-c2cccc(F)c2)ncc1C(=O)NCc1cccc(F)c1 [Example 10.3, 4-Amino-2-(3-fluorophenyl)-N-[(3-fluorophenyl)methyl]pyrimidine-5-carboxamide]
0.976 µM | 3.19 µM | 1.85 µM | 0.632 µM | 0.976 µM | Nc1nc(-c2cccc(F)c2)ncc1C(=O)NCc1cccc(C(F)(F)F)c1 [Example 10.11, 4-Amino-2-(3-fluorophenyl)-N-[[3-(trifluoromethyl)phenyl]methyl]pyrimidine-5-carboxamide]
0.137 µM | 2.97 µM | 0.3 µM | 0.658 µM | 0.137 µM | Nc1nc(-c2cccc(F)c2)ncc1C(=O)NCc1ccccc1Cl [Example 10.5, 4-Amino-N-[(2-chlorophenyl)methyl]-2-(3-fluorophenyl)pyrimidine-5-carboxamide]
0.959 µM | 6.06 µM | 1.82 µM | 3.8 µM | 0.959 µM | Nc1nc(-c2cccc(F)c2)ncc1C(=O)NCc1ccc(F)cc1 [Example 10.4, 4-Amino-2-(3-fluorophenyl)-N-[(4-fluorophenyl)methyl]pyrimidine-5-carboxamide]

More lines, now with the values behind:

SMILES | Ki (Adenosine A2a receptor; Table 9, further testing) | Ki (Adenosine A2b receptor) | Ki (Adenosine A3 receptor) | Ki (Adenosine A1 receptor) | Ki (Adenosine A2a receptor; Table 8, Cheng and Prusoff)
Cc1cccnc1CNC(=O)c1c(N)nc(-c2ccco2)nc1Cl [Example 13, 4-Amino-6-chloro-2-(2-furyl)-N-[(3-methyl-2-pyridyl)methyl]pyrimidine-5-carboxamide] | 0.02 µM | 3.89 µM | 1.19 µM | 0.314 µM | 0.02 µM
CCCOc1nc(-c2ccco2)nc(N)c1C(=O)NCc1ncccc1C [Example 20.9, 4-Amino-2-(2-furyl)-N-[(3-methyl-2-pyridyl)methyl]-6-propoxy-pyrimidine-5-carboxamide] | 0.00052 µM | 0.384 µM | 0.018 µM | 0.044 µM | 
Cc1cccnc1CNC(=O)c1c(N)nc(-c2ccco2)nc1OCC(F)(F)F [Example 20.2, 4-Amino-2-(2-furyl)-N-[(3-methyl-2-pyridyl)methyl]-6-(2,2,2-trifluoroethoxy)pyrimidine-5-carboxamide] | 0.00021 µM | 0.037 µM | 0.0099 µM | 0.004 µM | 
Cc1cccnc1CNC(=O)c1c(N)nc(-c2ccco2)nc1OCCCN [Example 23.5, 4-Amino-6-(3-aminopropoxy)-2-(2-furyl)-N-[(3-methyl-2-pyridyl)methyl]pyrimidine-5-carboxamide dihydrochloride] | 0.023 µM | 3.06 µM | 2.15 µM | 1.06 µM | 
Nc1nc(-c2ccco2)ncc1C(=O)NCc1ccccc1Cl [Example 5.15, 4-Amino-N-[(2-chlorophenyl)methyl]-2-(2-furyl)pyrimidine-5-carboxamide] | 0.0051 µM | 1.21 µM | 2.17 µM | 3.99 µM | 0.0051 µM
Nc1nc(-c2ccco2)ncc1C(=O)NCc1cccc(C(F)(F)F)c1 [Example 5.29, 4-Amino-2-(2-furyl)-N-[[3-(trifluoromethyl)phenyl]methyl]pyrimidine-5-carboxamide] | 0.052 µM | 5.47 µM | 2.46 µM | 1.7 µM | 0.052 µM
CCOC(=O)c1nnc(-c2ccco2)nc1N [Example 1, Ethyl 5-amino-3-(2-furyl)-1,2,4-triazine-6-carboxylate] | 0.061 µM | 0.382 µM | 0.101 µM | 0.314 µM | 0.06 µM
Cc1cccnc1CNC(=O)c1c(N)nc(-c2ccco2)nc1OCC(C)C [Example 20.3, 4-Amino-2-(2-furyl)-6-isobutoxy-N-[(3-methyl-2-pyridyl)methyl]pyrimidine-5-carboxamide] | 0.00047 µM | 0.174 µM | 0.0017 µM | 0.0041 µM | 
COc1cc(CNC(=O)c2cnc(-c3ccco3)nc2N)cc(OC)c1 [Example 5.43, 4-Amino-N-[(3,5-dimethoxyphenyl)methyl]-2-(2-furyl)pyrimidine-5-carboxamide] | 0.058 µM | 5.14 µM | 5.92 µM | 4.78 µM | 
Cc1ccc(-c2ncc(C(=O)NCc3ncccc3C)c(N)n2)o1 [Example 3.1, 4-Amino-2-(5-methyl-2-furyl)-N-[(3-methyl-2-pyridyl)methyl]pyrimidine-5-carboxamide] | 0.424 µM | 5.54 µM | 0.818 µM | 0.995 µM | 
Nc1nc(-c2ccco2)ncc1C(=O)NCc1ccccc1C(F)F [Example 5.35, 4-Amino-N-[[2-(difluoromethyl)phenyl]methyl]-2-(2-furyl)pyrimidine-5-carboxamide] | 0.012 µM | 1.33 µM | 2.8 µM | 2.62 µM | 
Cc1cccnc1CNC(=O)c1c(N)nc(-c2ccco2)nc1OCCO [Example 20.1, 4-Amino-2-(2-furyl)-6-(2-hydroxyethoxy)-N-[(3-methyl-2-pyridyl)methyl]pyrimidine-5-carboxamide] | 0.00013 µM | 0.107 µM | 0.086 µM | 0.0054 µM | 
